# Measurements from patent publication US11925612B2, “Bactericidal and virucidal pharmaceutical composition” (Quimica Luar SRL, priority 2015, dated 2024).
# Like-named read-outs stand apart in the source and are kept apart here.
# What was measured:
# P. aeruginosa = experiment: Bactericidal test: CFU count after incubation in PBS buffer; format: cell-based, Pseudomonas aeruginosa
# [1] = test system: Rubella virus strain (MV); format: cell-based; conditions: Ibuprofen at 50 mM, virus incubated 60 minutes at 37° C.
# [2] = test system: vesicular stomatitis virus (VSV); format: cell-based; conditions: Ibuprofen at 50 mM, virus incubated 60 minutes at 37° C.
# [3] = test system: BVDV bovine diarrhea virus; format: cell-based; conditions: Ibuprofen at 50 mM, virus incubated 60 minutes at 37° C.
# [4] = solubilised in water; cited from earlier work
# [5] = test system: Herpes Simplex 1 virus (HSV); format: cell-based; conditions: Ibuprofen at 50 mM, virus incubated 60 minutes at 37° C.
# Burkhordelia cepacia = format: cell-based; conditions: 4 h incubation at 37° C., control 130,000, Example 10
# Method: In this case, tests were run on a non-nutritive liquid carrier (buffer solution) wherein the antimicrobial agent is mixed with quantified inocula of pure bacterial cultures. After different incubation times, the material is seeded on agar plates to perform quantification assays on the number of bacterias surviving the treatment.
# When the time for each assay finished, aliquots of 100 uL and decimal dilutions of each tube which were seeded on petri dishes for the direct count of colony forming units (CFU) in Mueller Hinton agar (MHA), using pour-plating or spread-plating standard methods.
# During testing, the medium was stored in thermostatic bath between 45-50° C. because the seeding technique requires imbibing and integrating bacteria in the medium.
# [6] = test system: artificial biofilm of P. aeruginosa; experiment: Antimicrobial effect on artificial biofilm (2% alginate solution); format: cell-based, Pseudomonas aeruginosa; conditions: Biofilm (2% alginate) + ionic strength (1 M NaCl), 4 hours at 37° C., control 2,000,000, Example 21
# Method: Work consisted of incubating bacterial populations of a known load in terms of CFU/mL with the compounds mentioned in different molar concentrations. In vitro test batteries were organized at different doses or concentrations and in 1.5 mL Eppendorf tubes without the addition of culture medium. To this purpose, a PBS 100 mM phosphate buffer was used to maintain physiological conditions throughout the period of each test at 37° C. […] Each plate was added with 5 uL of a solution of 2,3,5-metabolic dye triphenyltetrazolium of chloride (TTC) 1% to enhance the contrast of colonies. Plates were incubated in inverted position, in a culture stove for 24-48 hours at 37° C. and subsequently the direct count was done, adjusted by dilution factors and seeding to report results in terms of CFU/mL. […] Treatments lasted 4 hours at 37° C.
compound,measurement,setting,value
"CC(C)Cc1ccc(C(C)C(=O)O)cc1 (centres unmarked) [IBU-H, PROTONATED IBUPROFEN]",P. aeruginosa (UFC/mL ± 10),"P. aeruginosa; IBU 10 mM, 4 h at 37° C., control 1,700,000, Example 4","480,000 UFC/mL"
same,P. aeruginosa (UFC/mL ± 10),"P. aeruginosa; IBU 20 mM, 4 h at 37° C., control 1,700,000, Example 4","200,000 UFC/mL"
same,P. aeruginosa (UFC/mL ± 10),"P. aeruginosa; IBU 50 mM, 4 h at 37° C., control 1,700,000, Example 4",1000 UFC/mL
same,P. aeruginosa (UFC/mL ± 10),"P. aeruginosa; IBU 100 mM, 4 h at 37° C., control 1,700,000, Example 4",10 UFC/mL
"CC(C)Cc1ccc(C(C)C(=O)O)cc1 (centres unmarked) [Ibuprofen, ibuprofen]",Reduction of viral level,[1],>5.0 TCID50 mL-1
same,Reduction of viral level,[2],>7.7 TCID50 mL-1
same,Reduction of viral level,[3],>6.5 TCID50 mL-1
same,critical micelle concentration (CMC),[4],about 180 mM
same,Reduction of viral level,[5],>6.9 TCID50 mL-1
[Cl-].[Na+] [NaCl],P. aeruginosa (UFC/mL ± 10),"P. aeruginosa; NaCl 0.01 M, 4 hours at 37° C., control 2,000,000, Example 11","2,000,000 UFC/mL"
same,P. aeruginosa (UFC/mL ± 10),"P. aeruginosa; NaCl 0.025 M, 4 hours at 37° C., control 2,000,000, Example 11","2,000,000 UFC/mL"
same,P. aeruginosa (UFC/mL ± 10),"P. aeruginosa; NaCl 0.1 M, 4 hours at 37° C., control 2,000,000, Example 11","2,000,000 UFC/mL"
same,P. aeruginosa (UFC/mL ± 10),"P. aeruginosa; NaCl 0.25 M, 4 hours at 37° C., control 2,000,000, Example 11","1,800,000 UFC/mL"
same,P. aeruginosa (UFC/mL ± 10),"P. aeruginosa; NaCl 0.5 M (line between 0.025 and 0.1), 4 hours at 37° C., control 2,000,000, Example 11","2,000,000 UFC/mL"
same,P. aeruginosa (UFC/mL ± 10),"P. aeruginosa; NaCl 0.5 M (line between 0.25 and 1), 4 hours at 37° C., control 2,000,000, Example 11","1,600,000 UFC/mL"
same,P. aeruginosa (UFC/mL ± 10),"P. aeruginosa; NaCl 1 M, 4 hours at 37° C., control 2,000,000, Example 11","1,000,000 UFC/mL"
COc1ccc2cc([C@H](C)C(=O)O)ccc2c1 [Naproxen],B. cepacia (UFC/mL ± 10),Burkhordelia cepacia; Naproxen 10 mM,"125,000 UFC/mL"
same,B. cepacia (UFC/mL ± 10),Burkhordelia cepacia; Naproxen 25 mM,"38,000 UFC/mL"
same,B. cepacia (UFC/mL ± 10),Burkhordelia cepacia; Naproxen 50 mM,"31,000 UFC/mL"
same,B. cepacia (UFC/mL ± 10),Burkhordelia cepacia; Naproxen 100 mM,"1,300 UFC/mL"
"NC[C@H]1O[C@H](O[C@H]2[C@H](O)[C@@H](O[C@H]3O[C@H](CO)[C@@H](O)[C@H](N)[C@H]3O)[C@H](N)C[C@@H]2N)[C@H](N)C[C@@H]1O [Tobramycin, tobramycin]",P. aeruginosa (UFC/mL ± 10),[6]; 5 mM,10 UFC/mL
same,P. aeruginosa (UFC/mL ± 10),[6]; 10 mM,10 UFC/mL
same,P. aeruginosa (UFC/mL ± 10),"P. aeruginosa; Tobramycin 0.25 mM with ClNa (1M), 4 h at 37° C., control 1,000,000, Example 20","400,000 UFC/mL"
same,P. aeruginosa (UFC/mL ± 10),"P. aeruginosa; Tobramycin 1 mM with ClNa (1M), 4 h at 37° C., control 1,000,000, Example 20",10 UFC/mL
same,P. aeruginosa (UFC/mL ± 10),"P. aeruginosa; Tobramycin 1 mM, 1 hour, 37° C., control 2,000,000, Example 19","1,000,000 UFC/mL"
same,P. aeruginosa (UFC/mL ± 10),"P. aeruginosa; Tobramycin 1 mM, 4 hours, 37° C., control 2,000,000, Example 19","30,000 UFC/mL"
same,P. aeruginosa (UFC/mL ± 10),"P. aeruginosa; Tobramycin 1 mM, O.N., 37° C., control 2,000,000, Example 19","30,000 UFC/mL"
same,P. aeruginosa (UFC/mL ± 10),"P. aeruginosa; Tobramycin 2.5 mM, 1 hour, 37° C., control 2,000,000, Example 19","60,000 UFC/mL"
same,P. aeruginosa (UFC/mL ± 10),"P. aeruginosa; Tobramycin 2.5 mM, 4 hours, 37° C., control 2,000,000, Example 19","20,000 UFC/mL"
same,P. aeruginosa (UFC/mL ± 10),"P. aeruginosa; Tobramycin 2.5 mM, O.N., 37° C., control 2,000,000, Example 19",10 UFC/mL
same,P. aeruginosa (UFC/mL ± 10),"P. aeruginosa; Tobramycin 5 mM with ClNa (1M), 4 h at 37° C., control 1,000,000, Example 20",10 UFC/mL
same,P. aeruginosa (UFC/mL ± 10),"P. aeruginosa; Tobramycin 5 mM, 1 hour, 37° C., control 2,000,000, Example 19","30,000 UFC/mL"
same,P. aeruginosa (UFC/mL ± 10),"P. aeruginosa; Tobramycin 5 mM, 4 hours, 37° C., control 2,000,000, Example 19","1,000 UFC/mL"
same,P. aeruginosa (UFC/mL ± 10),"P. aeruginosa; Tobramycin 5 mM, O.N., 37° C., control 2,000,000, Example 19",10 UFC/mL
same,P. aeruginosa (UFC/mL ± 10),"P. aeruginosa; Tobramycin 10 mM with ClNa (1M), 4 h at 37° C., control 1,000,000, Example 20",10 UFC/mL
same,P. aeruginosa (UFC/mL ± 10),"P. aeruginosa; Tobramycin 10 mM, 1 hour, 37° C., control 2,000,000, Example 19","1,000 UFC/mL"
same,P. aeruginosa (UFC/mL ± 10),"P. aeruginosa; Tobramycin 10 mM, 4 hours, 37° C., control 2,000,000, Example 19",10 UFC/mL
same,P. aeruginosa (UFC/mL ± 10),"P. aeruginosa; Tobramycin 10 mM, O.N., 37° C., control 2,000,000, Example 19",10 UFC/mL
